Results published in publication PMC5458187, “Inhibitor SBFI26 suppresses the malignant progression of castration-resistant PC3-M cells by competitively binding to oncogenic FABP5” (Oncotarget, 2017).
Values joined by “and” are separate entries in the source; they are usually repeats but may differ in a detail not shown here. Equal entries are not always repeated.

Experiments:
wtrFABP5 = wtrFABP5 (Homo sapiens, UniProt Q01469); assay: DAUDA displacement assay (ligand binding); conditions: for relative level of fluorescence intensity after adding ligand to the DAUDA-wtrFABP5 complex: 10 μM ligand, 2 μM DAUDA, 3 μM wtrFABP5, complex without ligand 2.65 ± 0.14; for Ki: displacement of 2 μM DAUDA from 3 μM wtrFABP5, ligand 0.5–20 μM, Ki = IC50/1+(DAUDA/Kd), read-out: inhibition constant Ki (binding affinity)
Sequence of wtrFABP5 (Q01469 whole entry): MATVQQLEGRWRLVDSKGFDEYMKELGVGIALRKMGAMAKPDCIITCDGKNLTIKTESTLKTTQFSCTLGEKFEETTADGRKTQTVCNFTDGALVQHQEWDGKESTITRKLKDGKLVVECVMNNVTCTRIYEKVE
Source text: The fatty acid-binding ability of wtrFABP5 was examined by using the DAUDA displacement assay which used fatty acids and different chemical compounds to replace the fluorescently labelled fatty acid analogue DAUDA (Cayman). […] For each experiment, the fluorescence data were normalized to the peak fluorescent intensity, and then subtracted from the data of samples without protein. The data were fitted by nonlinear regression using GraphPad Prism software to a saturation binding curve model to estimate the apparent dissociation constant (Kd) and maximal fluorescence intensity (Bmax). […] The Ki of each ligand was determined using the equation Ki = IC50/1+ (DAUDA concentration /Kd).

[1] = test system: p-PPARγ1 and p-PPARγ2 in PC3-M cells; assay: Western blot of phosphorylated PPARγ in PC3-M cells; format: cell-based, human; conditions: for reduction in level of p-PPARγ1 / reduction in level of p-PPARγ2: untreated set at 1
[2] = test system: PC3-M cells inoculated into the right flank; assay: Subcutaneous nude mouse tumorigenicity assay; format: in vivo, nude mice
Description: PC3-M cells (2 × 10^6) in 200 μL PBS were subcutaneously injected into the right flank region of the mouse (6–8 week old) to test the suppressive effect of the inhibitors on tumorigenicity. In the first round, 3 groups of mice (8 each) were used: 1) control with PBS; 2) 1mg/kg SBFI26, injected from the 1st day after cell inoculation; 3) 1mg/kg SBFI26, injected from the 7th day after cell inoculation. In the second round, 2 groups of mice (5 each) were used and at 7 days after the cell inoculation, each group was subjected to different intra-tumoural injections: 1) control with PBS; 2) PPARγ antagonist (GW9662, 1mg/kg) (Sigma). The injections were repeated every 2 days for 30 days, tumour size was measured every 3–4 days and the volume calculated by the formula of L× W×H×0.5236 [56]. Work was performed in accordance with UKCCCR guidelines under Home Office License PPL40/2963.

[3] = test system: p-PPARγ1 and p-PPARγ2 in 22RV1 cells; assay: Western blot of phosphorylated PPARγ in 22RV1 cells; format: cell-based, human; conditions: for effect on levels of p-PPARγ1 and 2: 22RV1, 24 h
[4] = test system: fatty acid uptake of PC3-M cells; assay: Fatty acid uptake assay with BODIPY-labelled fatty acid; format: cell-based, human; conditions: 30 min; for cells with BODIPY-labelled fatty acid uptake (M2): control 92.9%
Description: Assay for fatty acid uptake was performed using red fluorescence-labelled BODIPY [57]. The fluorescence intensity from cells before and 30 minutes after adding BODIPY was measured to determine fatty acid uptake. In inhibition and competition experiments, different concentrations of unlabelled lead compound SBFI26 (50–200 μM) with the same concentration of labelled BODIPY were added directly to the highly malignant PC3-M cells.

PC3-M cells [5] = assay: Wound healing migration assay; format: cell-based, human; conditions: 100 μM, 24 h; control gap closure 94%
Description: Wound healing migration assay was carried out to evaluate the effect of SBFI26 on the migratory rate of PC3-M cells. Wounds were generated by scratching the monolayer cells with a blue pipette tip. The floating cells were removed by washing with PBS and inhibitors were added to the culture medium. The wound was photographed under the microscope at 0, 12 and 24 h after treatment and the wound widths were assessed by quantitative analysis using ImageJ software.

PC3-M cells [6] = assay: Boyden chamber invasion assay; format: cell-based, human; conditions: 100 μM, 24 h
Description: PC3-M cells in serum-free medium were seeded in the upper Boyden chamber (BD Biosciences) in triplicate at a density of 2.5 × 10^4 cells per well in serum-free medium. Complete medium was added to the lower chambers. After 3 hours of incubation, 100 μM SBFI26 was added to the upper chambers. After 24 h of incubation, cells that invaded the lower chambers were stained with crystal violet and counted with a cell counter.

PC3-M cells [7] = assay: Cell viability MTT assay; format: cell-based, human; conditions: 24 h
Description: (§1) PC3-M cells (5 × 10^4) were plated in triplicate in 96 well plates and incubated overnight. Cells were treated with different concentrations of SBFI26 (25–125 μM) for 24 h. Cell viability was assessed using MTT assay, as described previously. The anti-proliferative effect of the best concentration for SBFI26 was determined after 6 days of treatment.

[8] = test system: PC3-M-Luc8 cells implanted orthotopically into the prostate gland; assay: Orthotopic nude mouse assay of tumorigenicity and metastasis; format: in vivo, Balb/c nude mice
Description: PC3-M cells were transfected with the pGL4.50 [luc2/CMV/Hygro] vector (Promega) using FuGene HD transfection reagent (Promega) following the manufacturer’s instructions. Individual colonies were isolated by ring cloning and 3 colonies that stably-expressed the highest bioluminescence signals were identified using D-luciferin (Promega) with a Varioskan Flash Reader (Thermo Scientific). Association of the luminescence intensity with the number of cells was assessed by an IVIS imaging system (Perkin Elmer). Cells (5 × 10^5) from PC3-M- luc2 colony were suspended in 30 μL PBS and orthotopically implanted into the dorsal prostate of 33 male Balb/c nude mice (Charles River, UK) (8–10 weeks old), as described previously. One week later, tumour-bearing mice were divided into 2 groups (8 each) and subjected to the following intraperitoneally injections: 1) control with PBS; 2) SBFI26, 1mg/kg. Injections were repeated every two days for 25 days and the metastatic loci were monitored weekly using the IVIS after mice were subcutaneously injected with D-luciferin (150 mg/kg). Bioluminescence images was analysed using the Living Imagine software (Xenogen) and the measurement recorded was based on total photons/second (p/s) within each defined region of interest.

PC3-M cells [9] = assay: Proliferation MTT assay; format: cell-based, human; conditions: 100 μM
Description: as §1

PC3-M cells [10] = assay: Soft-agar colony formation assay; format: cell-based, human; conditions: 100 μM
Description: Low melting agarose was seeded in 6-well plates and 5 × 10^4 cells/well layered on agar, followed by 200 μl of medium alone or medium with FABP5 inhibitor SBFI26. Colonies larger than 300 μm in each well were counted 2 weeks later in a similar way to that described previously.

PPARγ = test system: PPARγ; design: method as in PMID 23236415; conditions: cited from earlier work

Molecule: CN(C)c1cccc2c(S(=O)(=O)NCCCCCCCCCCC(=O)O)cccc12 [DAUDA]
- Kd (wtrFABP5; 3 μM wtrFABP5 titrated with DAUDA 0.4–3 μM, ex 345/em 530 nm, read-out: apparent dissociation constant (Kd) of DAUDA to wtrFABP5): 1.86 ± 0.16 µM
- maximal fluorescence intensity (Bmax) (wtrFABP5; DAUDA titration to 3 μM wtrFABP5): 3.579

Molecule: O=C(Nc1ccccc1)c1cc([N+](=O)[O-])ccc1Cl [GW9662]
- reduction in level of p-PPARγ1 ([1]; 24 hours): 52%
- reduction in level of p-PPARγ2 ([1]; 24 hours): 51%
- suppression of tumour size vs control ([2]; GW9662 1 mg/kg from day 7): 67%
- average size of tumours ([2]; GW9662 1 mg/kg intra-tumoural from day 7, n = 5, control 774 ± 202 mm^3): 252 ± 84 mm^3

Molecule: CCCCCCCC/C=C\CCCCCCCC(=O)O [oleic acid]
- relative level of fluorescence intensity after adding ligand to the DAUDA-wtrFABP5 complex (wtrFABP5): 1.68 ± 0.09
- Ki (wtrFABP5): 1.89 µM

Molecule: CN(CCOc1ccc(CC2SC(=O)NC2=O)cc1)c1ccccn1 (centres unmarked) [rosiglitazone]
- effect on levels of p-PPARγ isoforms ([1]; 24 hours): significantly increased levels of both p-PPARγ isoforms

Molecule: wtrFABP5: FABP5 protein (wtrFABP5) used as binding target and as treatment of 22RV1 cells
- effect on levels of p-PPARγ1 and 2 [3]: significantly increased levels of both p-PPARγ1 and 2

Molecule: O=C(O)C1C(c2ccccc2)C(C(=O)Oc2cccc3ccccc23)C1c1ccccc1 (stereo not drawn) [SBFI26, α-truxillic acid 1-naphthyl mono-ester]
- unstained cells (M1) ([4]; 50 μM): 20.76%
- cells with BODIPY-labelled fatty acid uptake (M2) ([4]; 50 μM): 79.24%
- unstained cells (M1) ([4]; 100 μM): 32.31%
- cells with BODIPY-labelled fatty acid uptake (M2) ([4]; 100 μM): 67.7% and 67.69%
- unstained cells (M1) ([4]; 150 μM): 30.88%
- cells with BODIPY-labelled fatty acid uptake (M2) ([4]; 150 μM): 69.12%
- unstained cells (M1) ([4]; 200 μM): 30.79%
- cells with BODIPY-labelled fatty acid uptake (M2) ([4]; 200 μM): 69.21%
- reduction in wound size (PC3-M cells [5]): 19%
- suppression of invasion (PC3-M cells [6]; vs control): 95.5%
- mean number of invaded cells (PC3-M cells [6]; control 22 ± 3): 1 ± 1
- average reduction in both PPARγ activated isoforms ([3]; 22RV1): 33.5%
- effect on levels of p-PPARγ1 and 2 [3]: suppressed the levels of both p-PPARγ isoforms
- average reduction in both PPARγ activated isoforms [1]: about 50%
- reduction in level of p-PPARγ1 ([1]; 24 hours): 44%
- reduction in level of p-PPARγ2 ([1]; 24 hours): 46%
- suppression of tumour volume vs control ([2]; SBFI26 1 mg/kg for 31 days): 52%
- average tumour volume on termination ([2]; SBFI26 1 mg/kg for 31 days, n = 8, control 627 ± 120 mm^3): 302 ± 86 mm^3
- reduction in cell numbers (PC3-M cells [7]; 100 μM): 26%
- concentration producing maximum suppression of viability (PC3-M cells [7]; MTT): 100 µM
- suppression in metastasis incidence compared to control ([8]; 25 days, 1 mg/kg i.p.): 50%
- mice that produced visceral metastasis (number/total) ([8]; 25 days, 1 mg/kg i.p., control 7/7): 4/8
- mice that produced visceral metastasis ([8]; 25 days, 1 mg/kg i.p., control 100%): 50%
- metastasis sites by histological staining ([8]; H&E, control: all mice, mainly liver and lung): half of the mice developed liver metastases with no metastasis in the lung
- bioluminescence signal ([8]; day 25, 1 mg/kg intraperitoneally, control 31.5 × 10^8): 6.66 × 10^8 p/sec/cm^2
- reduction of proliferation rate (PC3-M cells [9]): 17 times
- inhibition of colony formation (PC3-M cells [10]; 2 weeks, vs control): 100%
- number of colonies formed in soft agar (PC3-M cells [10]; after 2 weeks, control 124 ± 18): 0
- activity at PPARγ (PPARγ): weak agonist of PPARγ

Molecule: CCCCC/C=C\C/C=C\CCCCCCCC(=O)O [linoleic acid]
- relative level of fluorescence intensity after adding ligand to the DAUDA-wtrFABP5 complex (wtrFABP5): 1.37 ± 0.07
- Ki (wtrFABP5): 1.57 µM
